{"source": "paper PMC10100771", "about": "“A Novel CMY Variant Confers Transferable High-Level Resistance to Ceftazidime-Avibactam in Multidrug-Resistant Escherichia coli” (Microbiology Spectrum, 2023)", "key": {"[1]": {"system": "E. coli J53-AR13438", "experiment": "MIC by agar dilution, conjugant containing pAR13438_2", "format": "cell-based", "conditions": "Escherichia coli, J53AR13438, E. coli J53-AR13438 (blaCMY-178)", "protocol": "(§1) Antimicrobial susceptibility testing was performed and interpreted according to the Clinical and Laboratory Standards Institute (CLSI) guidelines and breakpoints (M100, 31st edition) by the agar dilution method. E. coli ATCC 25922 and K. pneumoniae ATCC 700603 served as control strains.\n(§2) Conjugation experiments were performed by filter mating using sodium-azide-resistant E. coli J53 as the recipient, as described previously. Transconjugants were selected with MH agar containing 100 μg/mL sodium azide and 4 μg/mL ceftazidime-avibactam; furthermore, transconjugants were named J53-AR13438 and J53-KPCZA02, respectively. We compared genomes of AR13438 and J53 to select a unique gene (gtrA) to J53. […] The primers used for PCR were gtrA-F, gtrA-R, CMY-F, and CMY-R (Table S1). The transfer frequencies were calculated as the number of transconjugants (CFU/mL) divided by the number of recipients (CFU/mL). Donors and recipients were mixed at 1:1 for the transfer frequency experiment. S1-PFGE and Southern blotting were performed to define the location of blaCMY-178 and confirm the transmission of the plasmid as described previously ([35]). The MIC profiles of transconjugants were also determined by the agar dilution method."}, "[2]": {"system": "E. coli DH5α", "experiment": "MIC by agar dilution, E. coli DH5α", "format": "cell-based", "conditions": "Escherichia coli", "protocol": "as §1\n(§3) The antibiotics we used included meropenem (Hanhui Pharmaceutical Co., Ltd., China), imipenem (Merck Sharp & Dohme Corp., USA), cefepime (Jiangsu Hengrui Pharmaceutical Co., Ltd., China), piperacillin (Suzhou Erye Pharmaceutical Co., Ltd., China), ceftazidime (Guangdong Jincheng Jinsu Pharmaceutical Co., Ltd., China), tazobactam (Meilunbio, China), avibactam (MedChemExpress, USA), aztreonam (Sigma-Aldrich, USA), amikacin (Meilunbio), cefuroxime (Esseti Farmaceutici S.r.l., Italy), fosfomycin (Harbin Pharmaceutical Group Co., Ltd. China), levofloxacin (Daiichi Sankyo Company Limited, Beijing, China), and cefotaxime (North China Pharmaceutical Hebei Huamin Pharmaceutical Co., Ltd., China)."}, "[3]": {"system": "E. coli DH5α-pCR2.1", "experiment": "MIC by agar dilution, DH5α with blank vector pCR2.1", "format": "cell-based", "conditions": "Escherichia coli", "protocol": "as §1, §3\n(§4) The blaCMY cloning was performed using a TA cloning kit (Invitrogen, Shanghai, China). The blaCMY-178 gene combined with its predicted promoter was amplified from isolate AR13438. Then, the blaCMY-178 gene was cloned into the linearized vector pCR2.1 using T4 DNA ligase (Invitrogen). The blaCMY-172 gene was cloned from KPCZA02 with the same method. The resulting plasmids were chemically transformed into E. coli DH5α. The positive transformants were identified by blue-white screening in MH agar containing 50 μg/mL kanamycin and were further confirmed by Sanger sequencing. The pCR2.1 blank vector was also transformed into E. coli DH5α as a control. The primers used for cloning were CMY-F and CMY-R (see Table S2 in the supplemental material). Relative CMY expression was measured by reverse transcription-quantitative PCR as described previously ([34]). Specific quantitative PCR (qPCR) primers (q-recA-F/R and q-CMY-F/R) were designed (Table S2)."}, "[4]": {"target": "T1, CMY-172 (Klebsiella pneumoniae, UniProt Q48434, DEL310-312/N366I)", "T1 construct": "were amplified without a signal peptide and cloned into the pET28a; His8 (N); made in house; host or cells: E. coli BL21(DE3)", "experiment": "Ki by direct competition assay with nitrocefin, CMY-172", "format": "biochemical", "conditions": "competition with 100 μM nitrocefin, 2-min incubation, mean ± SD", "protocol": "(§5) blaCMYs (including blaCMY-2, blaCMY-172, and blaCMY-178) were amplified without a signal peptide and cloned into the pET28a, which led to the introduction of an N-terminal His8-Tag.The recombinant plasmids were transformed into E. coli BL21(DE3) and selected using Sanger sequencing. Lysogenic broth containing 50 μg/mL kanamycin was inoculated with transformants and grown to reach an OD600 of 0.6. A final concentration of 1 mM isopropyl-β-D-thiogalactopyranoside (IPTG) was added into the resulting culture, which was shaken at 18°C overnight. The culture broth was centrifuged to harvest bacteria. The pellet was resuspended in lysis buffer (50 mM Tris-HCl and 300 mM NaCl (pH 7.5)) and disrupted using a JN-02C French press (JNBIO, Guangzhou, China) at 1,100 bar. Then, the cell debris was removed by centrifugation at 11,000 rpm for 40 min at 4°C. The supernatant was added to an Ni column, and the absorbed protein was eluted by the eluent buffer (lysis buffer with 300 mM imidazole).\n(§6) Enzymatic activities were measured using a D8 UV-visible spectrophotometer (Rumqee, Shanghai, China) in phosphate-buffered saline (PBS; pH 7.2) at room temperature. Substrates tested included nitrocefin, ceftazidime, and avibactam. […] The initial reaction velocities (v) were measured and Ki values were calculated by fitting data into equation 1 with GraphPad Prism v9.0.0 ([37]). […]"}, "[5]": {"system": "E. coli J53", "experiment": "MIC by agar dilution, recipient E. coli J53", "format": "cell-based", "conditions": "Escherichia coli", "protocol": "as §1, §3\nConjugation experiments were performed by filter mating using sodium-azide-resistant E. coli J53 as the recipient, as described previously. Transconjugants were selected with MH agar containing 100 μg/mL sodium azide and 4 μg/mL ceftazidime-avibactam; furthermore, transconjugants were named J53-AR13438 and J53-KPCZA02, respectively. We compared genomes of AR13438 and J53 to select a unique gene (gtrA) to J53. The blaCMY-178-postive transconjugants were confirmed by PCR and MALDI-TOF MS (see Fig. S9 in the supplemental material). The primers used for PCR were gtrA-F, gtrA-R, CMY-F, and CMY-R (Table S1). The transfer frequencies were calculated as the number of transconjugants (CFU/mL) divided by the number of recipients (CFU/mL). Donors and recipients were mixed at 1:1 for the transfer frequency experiment. S1-PFGE and Southern blotting were performed to define the location of blaCMY-178 and confirm the transmission of the plasmid as described previously ([35]). The MIC profiles of transconjugants were also determined by the agar dilution method."}, "[6]": {"system": "E. coli J53-KPCZA02", "experiment": "MIC by agar dilution, conjugant containing pKPCZA02_4", "format": "cell-based", "conditions": "Escherichia coli, J53KPCZA02, E. coli J53-KPCZA02 (blaCMY-172)", "protocol": "as §1, §2"}, "[7]": {"system": "E. coli DH5α-pCR2.1-CMY-2", "experiment": "MIC by agar dilution, transformant containing blaCMY-2", "format": "cell-based", "conditions": "Escherichia coli"}, "[8]": {"system": "E. coli DH5α-pCR2.1-CMY-178", "experiment": "MIC by agar dilution, transformant containing blaCMY-178", "format": "cell-based, Escherichia coli", "protocol": "as §1, §3, §4"}, "[9]": {"system": "E. coli strain AR13438", "experiment": "MIC by agar dilution, clinical isolate AR13438", "format": "cell-based, Escherichia coli", "conditions": "Escherichia coli; AR13438, clinical E. coli isolate (blaCMY-178, blaTEM-1, blaCTX-M-27); agar dilution", "protocol": "as §1, §3"}, "[10]": {"system": "K. pneumoniae isolate KPCZA02", "experiment": "microbe, parasite or virus in culture", "format": "cell-based", "conditions": "Klebsiella pneumoniae", "protocol": "as §1"}, "[11]": {"system": "E. coli DH5α-pCR2.1-CMY-172", "experiment": "MIC by agar dilution, transformant containing blaCMY-172", "format": "cell-based", "conditions": "Escherichia coli", "protocol": "as §1, §3, §4"}, "[12]": {"target": "T2, CMY-178 (Klebsiella pneumoniae, UniProt Q48434, DEL310-312/N366I/N90T)", "T2 construct": "were amplified without a signal peptide and cloned into the pET28a; His8 (N); made in house; host or cells: E. coli BL21(DE3)", "experiment": "Ki by direct competition assay with nitrocefin, CMY-178", "format": "biochemical, Escherichia coli", "conditions": "for Ki: CMY-178, competition with 100 μM nitrocefin, 2-min incubation, mean ± SD; for Increase of Ki value of CMY-178 compared with CMY-172: CMY-178 vs CMY-172", "protocol": "as §5\nEnzymatic activities were measured using a D8 UV-visible spectrophotometer (Rumqee, Shanghai, China) in phosphate-buffered saline (PBS; pH 7.2) at room temperature. Substrates tested included nitrocefin, ceftazidime, and avibactam. The extinction coefficient and wavelength of nitrocefin are 17,400 M^−1 · cm^−1 and 482 nm, respectively. […] The initial reaction velocities (v) were measured and Ki values were calculated by fitting data into equation 1 with GraphPad Prism v9.0.0 ([37]). (1) v=Vmax[S]/[S]+Km NCF (1+[I]/Ki)"}, "[13]": {"target": "T3, CMY-2 (Klebsiella pneumoniae, UniProt Q48434)", "T3 construct": "were amplified without a signal peptide and cloned into the pET28a; His8 (N); made in house; host or cells: E. coli BL21(DE3)", "experiment": "Ki by direct competition assay with nitrocefin, CMY-2", "format": "biochemical", "protocol": "as §5, §6"}}, "note": "Where two headings read alike, the source gives them in different places.", "data": [{"smiles": "CC(C)(O/N=C(\\C(=O)N[C@@H]1C(=O)N2C(C(=O)[O-])=C(C[n+]3ccccc3)CS[C@H]12)c1csc(N)n1)C(=O)O", "note": "[CAZ, ceftazidime]", "values": [{"measurement": "MIC", "setting": "[1]", "result": 1020, "unit": "µg/mL"}, {"measurement": "MIC", "setting": "[2]", "result": 0.25, "unit": "µg/mL"}, {"measurement": "MIC", "setting": "[3]", "result": 0.25, "unit": "µg/mL"}, {"measurement": "Ki", "setting": "[4]", "result": 1.06, "unit": "nM"}, {"measurement": "MIC", "setting": "[5]", "result": 0.25, "unit": "µg/mL"}, {"measurement": "MIC", "setting": "[6]", "result": 512, "unit": "µg/mL"}, {"measurement": "MIC", "setting": "[7]", "result": 256, "unit": "µg/mL"}, {"measurement": "MIC", "setting": "[8]; Escherichia coli, E. coli DH5α-pCR2.1-CMY-178, agar dilution", "result": "> 2050", "unit": "µg/mL"}, {"measurement": "Increase of MIC by blaCMY-178 compared with blaCMY-172", "setting": "[8]; transformants in E. coli DH5α", "result": "over 4 fold"}, {"measurement": "MIC", "setting": "[9]", "result": 2050, "unit": "µg/mL"}, {"measurement": "MIC", "setting": "[10]", "result": 2050, "unit": "µg/mL"}, {"measurement": "MIC", "setting": "[11]", "result": 512, "unit": "µg/mL"}, {"measurement": "Ki", "setting": "[12]", "result": 9.27, "unit": "nM"}, {"measurement": "Increase of Ki value of CMY-178 compared with CMY-172", "setting": "[12]", "result": "~ 5 fold"}, {"measurement": "Ki", "setting": "[13]; CMY-2, competition with 100 μM nitrocefin, 2-min incubation, mean ± SD, read-out: Ki", "result": 32.1, "unit": "nM"}]}, {"smiles": "C[C@]1(Cn2ccnn2)[C@H](C(=O)O)N2C(=O)C[C@H]2S1(=O)=O", "note": "[TAZ, tazobactam]", "values": [{"measurement": "Ki", "setting": "[4]", "result": "2120 ± 340", "unit": "nM"}, {"measurement": "Ki", "setting": "[12]", "result": "2490 ± 510", "unit": "nM"}, {"measurement": "Increase of Ki value of CMY-178 compared with CMY-172", "setting": "[12]", "result": "less than 2 fold"}, {"measurement": "Ki", "setting": "[13]", "result": "760 ± 70", "unit": "nM"}]}]}
